The text below walks through data of article PMC7337905, “Nitrosative stress inhibits aminoacylation and editing activities of mitochondrial threonyl-tRNA synthetase by S-nitrosation” (Nucleic Acids Research, 2020).

Residue numbers refer to the chain shown, from its start.

What all share (type): biochemical
Test [1] concerns the target T1, hmtThrRS (Homo sapiens, UniProt Q9BW92).
T1 construct: gene TARS2; mature form Leu20-Phe718, 699 residues, pET28, Ni-NTA, E. coli BL21(DE3), no reducing agent, dimer
T1 sequence (Q9BW92 20-718): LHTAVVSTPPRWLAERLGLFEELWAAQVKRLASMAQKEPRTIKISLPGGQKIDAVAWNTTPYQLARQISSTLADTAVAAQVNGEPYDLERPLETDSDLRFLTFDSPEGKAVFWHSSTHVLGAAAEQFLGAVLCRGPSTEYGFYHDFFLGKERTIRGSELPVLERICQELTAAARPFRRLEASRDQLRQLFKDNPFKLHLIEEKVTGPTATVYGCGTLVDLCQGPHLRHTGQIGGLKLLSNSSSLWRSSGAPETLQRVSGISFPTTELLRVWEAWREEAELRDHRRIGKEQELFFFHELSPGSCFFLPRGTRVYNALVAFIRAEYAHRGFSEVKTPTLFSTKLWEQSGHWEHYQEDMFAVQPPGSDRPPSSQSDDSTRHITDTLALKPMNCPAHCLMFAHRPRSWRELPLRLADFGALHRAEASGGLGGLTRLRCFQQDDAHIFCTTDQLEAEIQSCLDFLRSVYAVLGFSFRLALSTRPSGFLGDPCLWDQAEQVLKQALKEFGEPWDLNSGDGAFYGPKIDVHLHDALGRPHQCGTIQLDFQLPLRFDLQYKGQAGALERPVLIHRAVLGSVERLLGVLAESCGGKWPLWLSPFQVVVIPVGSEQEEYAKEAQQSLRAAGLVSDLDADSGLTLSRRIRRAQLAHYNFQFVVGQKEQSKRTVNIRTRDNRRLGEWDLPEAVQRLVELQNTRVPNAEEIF
Nature of the test: tRNA aminoacylation and mischarging, […]tRNA TLC, after preincubation; IBP-MS of modified Cys. Conditions: covalent (S-nitrosation, reversed by DTT); 1 uM enzyme preincubated with 1 or 5 mM GSNO, 37 C; pH 7.5, 10 mM MgCl2.

Test [2] deals with T2, hmtThrRS (Homo sapiens, UniProt Q9BW92, C185S/C409S/C506S).
T2 construct: gene TARS2; mature form Leu20-Phe718, 699 residues, pET28, Ni-NTA, E. coli BL21(DE3), no reducing agent, dimer
T2 sequence (Q9BW92 20-718 C185S/C409S/C506S): T1 sequence (Q9BW92 20-718) with C166S, C390S, C487S
Nature of the test: tRNA aminoacylation and posttransfer editing, […]tRNA TLC, after preincubation. The settings on record: covalent (S-nitrosation); 1 mM GSNO preincubation; C603 mutant (only Cys603 kept of the four sites).

For test [3], the target named is T3, hmtThrRS (Homo sapiens, UniProt Q9BW92, C185S/C409S/C603S).
T3 construct: gene TARS2; mature form Leu20-Phe718, 699 residues, pET28, Ni-NTA, E. coli BL21(DE3), no reducing agent, dimer
T3 sequence (Q9BW92 20-718 C185S/C409S/C603S): T1 sequence (Q9BW92 20-718) with C166S, C390S, C584S
The description is as above. The settings on record: covalent (S-nitrosation); 1 mM GSNO preincubation; C506 mutant (only Cys506 kept of the four sites).

Test [4] concerns the target T4, hmtThrRS (Homo sapiens, UniProt Q9BW92, C185S/C506S/C603S).
T4 construct: gene TARS2; mature form Leu20-Phe718, 699 residues, pET28, Ni-NTA, E. coli BL21(DE3), no reducing agent, dimer
T4 sequence (Q9BW92 20-718 C185S/C506S/C603S): T1 sequence (Q9BW92 20-718) with C166S, C487S, C584S
Described as above. Conditions: covalent (S-nitrosation); 1 mM GSNO preincubation; C409 mutant (only Cys409 kept of the four sites).

For test [5], the target named is T5, hmtThrRS (Homo sapiens, UniProt Q9BW92, C409S/C506S/C603S).
T5 construct: gene TARS2; mature form Leu20-Phe718, 699 residues, pET28, Ni-NTA, E. coli BL21(DE3), no reducing agent, dimer
T5 sequence (Q9BW92 20-718 C409S/C506S/C603S): T1 sequence (Q9BW92 20-718) with C390S, C487S, C584S
Described as above. Conditions: covalent (S-nitrosation); 1 mM GSNO preincubation; C185 mutant (only Cys185 kept of the four sites).

For test [6], the target named is T1, hmtThrRS. Nature of the test: tRNA mischarging, […]tRNA TLC. Conditions: noncognate; 100 mM Ser, E. coli tRNA-Thr, 10 mM MgCl2, pH 7.5.
The target in test [7] is T6, EcThrRS (Escherichia coli, UniProt P0A8M3).
T6 construct: gene thrS; purified enzyme, construct not described in main text
Nature of the test: tRNA aminoacylation, […]tRNA TLC. Conditions: 1 mM Thr, E. coli tRNA-Thr, 10 mM MgCl2, pH 7.5.

Test [8] addresses T1, hmtThrRS. Nature of the test: tRNA aminoacylation, […]tRNA TLC; ATP-PPi exchange. Conditions: 1 mM Thr, 10 uM E. coli tRNA-Thr, 10 mM MgCl2, pH 7.5.

T6 sequence (P0A8M3 whole entry): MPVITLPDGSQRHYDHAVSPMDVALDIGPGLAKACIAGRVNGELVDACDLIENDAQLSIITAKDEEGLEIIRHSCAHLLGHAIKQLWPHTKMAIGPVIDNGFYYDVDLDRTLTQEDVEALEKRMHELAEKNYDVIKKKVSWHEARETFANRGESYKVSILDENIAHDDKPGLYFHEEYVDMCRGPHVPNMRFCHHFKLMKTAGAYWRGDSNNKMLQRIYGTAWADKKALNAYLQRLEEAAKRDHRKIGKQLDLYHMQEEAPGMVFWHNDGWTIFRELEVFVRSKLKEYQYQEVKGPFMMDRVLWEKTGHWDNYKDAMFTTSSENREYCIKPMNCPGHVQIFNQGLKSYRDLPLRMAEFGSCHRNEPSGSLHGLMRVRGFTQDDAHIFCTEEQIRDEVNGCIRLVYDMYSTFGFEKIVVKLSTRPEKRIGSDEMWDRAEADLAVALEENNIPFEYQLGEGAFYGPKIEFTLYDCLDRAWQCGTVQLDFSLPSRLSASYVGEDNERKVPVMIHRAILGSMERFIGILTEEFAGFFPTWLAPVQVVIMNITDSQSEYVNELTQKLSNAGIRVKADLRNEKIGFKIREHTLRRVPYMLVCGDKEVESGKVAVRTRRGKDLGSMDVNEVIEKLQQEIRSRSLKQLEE

In the case of `N[C@@H](CCC(=O)N[C@@H](CSN=O)C(=O)NCC(=O)O)C(=O)O` [GSNO, S-nitrosoglutathione], the “tRNA aminoacylation and mischarging, [32P]tRNA TLC, after preincubation; IBP-MS” value in test [1] was “The resulting inhibition of both the aminoacylation and mischarging activities of hmtThrRS was dose-dependent”. For the same compound, the “tRNA aminoacylation and posttransfer editing, [32P]tRNA TLC, after preincubation” value in test [2] is reported as “Both activities for the four mutants were obviously inhibited after GSNO incubation”; in test [3], “Both activities for the four mutants were obviously inhibited after GSNO incubation”; in test [4] it was “the inhibitory effect of GSNO on the C409 mutant was the most prominent”; in test [5], “Both activities for the four mutants were obviously inhibited after GSNO incubation”.

In the case of `N[C@@H](CO)C(=O)O` [Ser, L-Ser], the “tRNA mischarging, [32P]tRNA TLC” value in test [6] is “mischarging of tRNA^Thr with noncognate Ser was determined without or with H2O2 treatment”.

As to `C[C@@H](O)[C@H](N)C(=O)O` [Thr, L-Thr], the “tRNA aminoacylation, [32P]tRNA TLC” value in test [7] is “aminoacylation activity of EcThrRS was assayed and compared”. Further, in test [8], the “tRNA aminoacylation, [32P]tRNA TLC; ATP-PPi exchange” value is recorded as “The synthesis of Thr-tRNA^Thr was obviously not affected by H2O2”.
